Data published in paper PMC12292862 (Biomedicines, 2025).
Converted amounts (≈) assume the structure as drawn. “Also recorded” adds a separate entry of the source. Marks after values point to notes of the source that are not given here.

Columns and labels:
malondialdehyde (MDA) = experiment: Paw tissue oxidative stress biomarker MDA; type: in vivo, rat; conditions: carrageenan rats, 200 mg/kg i.p.
Description: (§1) The selective pro-inflammatory cytokines were measured quantitatively using rat-specific Enzyme-Linked Immunosorbent Assay (ELISA) kits from Thermo Scientific™ (Waltham, MA, USA) with CAT. No. ERCRP for CRP; from Elabscience with Cat. No. E-EL-R2856 for TNF-α and with Cat. No. E-EL-R0011 for IL-1α; from CUSABIO, Houston, TX, USA, with Cat. No. CSB-E04640r for IL-6; and from My BioSource Co, USA, with Cat. No. MBS825017 for IL-1β, with Cat. No. MBS753621 for rat cyclooxygenase 1, and with Cat. No. MBS266603 for rat cyclooxygenase 2. Meanwhile, an ovine COX inhibitor-screening in vitro assay (item number 760111) was obtained from Cayman Chemical (Ann Arbor, MI, USA). We purchased malondialdehyde (MDA), glutathione (GSH), and superoxide dismutase (SOD) detection kits from Nanjing Jiancheng Bio-Technology Co. Ltd. (Nanjing, China).
(§2) At the end of the experiments, the rats were subjected to anesthesia with chloroform and then sacrificed. Blood was obtained via heart puncture for biochemical analysis. Following the animals’ sacrifice, the paws were taken out, decalcified, and stored in a 10% formalin solution. To prepare the tissue samples, they were sliced into thicknesses of 5 µm. Hematoxylin and eosin dyes were used to create the histology slides, which were then examined using a photomicroscope (Meiji Techno®, Iruma, Japan) for pathological alterations. The presence of inflammation was documented. Protease/phosphatase inhibitor cocktail in cold phosphate-buffered saline (1:4) (pH 7, 0.01 mol/L) (Cat. No. PPC1010, Sigma-Aldrich) was used to homogenize each rat’s paw piece in a glass homogenizer. After filtering and centrifuging the resultant homogenate for five minutes at 5000× g, oxidative stress biomarkers like GSH, SOD, and MDA were measured. The trials were repeated three times.

glutathione (GSH) = experiment: Paw tissue oxidative stress biomarker GSH; type: in vivo, rat; conditions: carrageenan rats, 200 mg/kg i.p., result in words
Description: as §1, §2

CRP = experiment: Serum CRP (ELISA) in carrageenan-injected rats; type: in vivo, rat; conditions: compounds 200 mg/kg i.p., indomethacin 10 mg/kg, mean ± SD
Description: as §1, §2

TNF-α = experiment: Serum TNF-α (ELISA) in carrageenan-injected rats; type: in vivo, rat; conditions: compounds 200 mg/kg i.p., indomethacin 10 mg/kg, mean ± SD
Description: as §1, §2

IL-1β = experiment: Serum IL-1β (ELISA) in carrageenan-injected rats; type: in vivo, rat; conditions: compounds 200 mg/kg i.p., indomethacin 10 mg/kg, mean ± SD
Description: as §1, §2

[1] = system: rat paw tissue dermal collagen; experiment: Sirius Red staining of dermal collagen in paw tissue; type: in vivo; conditions: carrageenan-injected paw; compounds 200 mg/kg i.p., indomethacin 10 mg/kg
rat cyclooxygenase 1 = experiment: COX-1 level in carrageenan-injected paw (ELISA); type: in vivo; conditions: compounds 200 mg/kg i.p., indomethacin 10 mg/kg, mean ± SD
Description: as §1, §2

[2] = Cell viability and cytotoxicity (MTT assay); type: cell-based, human; conditions: human, WI-38 human lung fibroblast cells, WI-38 cells; for IC50: 31.25 to 1000 µg/mL
Description: (§3) The cell lines were obtained from VACSERA—Holding Company for Biological Products and Vaccines, Cairo, Egypt. A 96-well tissue culture plate was seeded with 1 × 10^5 cells/mL (Wl-38 cells) from the human lung fibroblast cell line, adding 100 µL per well, and incubated at 37 °C with 5% CO2 for 24 h to allow the formation of a confluent monolayer. Following incubation, the growth medium was aspirated, and the cell monolayers were washed twice with wash medium to remove residual serum. Serial two-fold dilutions of the test compound were prepared in RPMI-1640 supplemented with 2% fetal bovine serum. Each dilution (100 µL) was added to the designated wells, while three wells served as negative controls and received only maintenance medium. The plate was incubated at 37 °C for an appropriate duration, during which cellular morphology was monitored for signs of cytotoxicity, including monolayer disruption, cell rounding, shrinkage, or granulation. MTT solution (5 mg/mL in PBS) was prepared, and 20 µL was added to each well. The plate was briefly agitated at 150 rpm for 5 min and then incubated for 4 h at 37 °C to allow viable cells to metabolize MTT into insoluble formazan crystals. After incubation, the supernatant was carefully removed, and 200 µL of DMSO was added to each well to solubilize the formazan. The plates were agitated again at 150 rpm for 5 min, and the absorbance was measured at 560 nm with background subtraction at 620 nm. The resulting optical density values were directly proportional to the number of viable cells.
(§4) The information was presented as the mean ± SD of the volume difference (mL) between the control and carrageenan-treated paws. One-way analysis of variance (ANOVA) was used to analyze the experimental groups’ data, and a Tukey post hoc test was then performed. p < 0.05 was considered significant. The IC50 values were calculated using Microsoft Excel by plotting a dose–response curve between compound concentration and cell viability percentage. A linear regression or logarithmic trendline was fitted to the data points, depending on the curve behavior.

[3] = system: WI-38 human lung fibroblast cells; experiment: Cell viability and cytotoxicity (MTT assay); type: cell-based; conditions: WI-38 cells; morphology
Description: as §3, §4

rat cyclooxygenase 2 = experiment: COX-2 level in carrageenan-injected paw (ELISA); type: in vivo; conditions: compounds 200 mg/kg i.p., indomethacin 10 mg/kg, mean ± SD
Description: as §1, with “Meanwhile, an ovine COX inhibitor-screening in vitro assay (item number 760111) was obtained from Cayman Chemical (Ann Arbor, MI, USA).” left out
as §2

SMILES | MDA level (malondialdehyde (MDA)) | GSH concentration (glutathione (GSH)) | CRP (CRP) | TNF-α (TNF-α) | IL-1β (IL-1β) | dermal collagen content and distribution (Sirius Red) [1] | COX-1 level (rat cyclooxygenase 1) [ng/mL] | viability at 31.25 µg/mL [2] [%] | IC50 [2] [µg/mL] | concentration above which cells shrink and lose fibroblast-like structure [3] | COX-2 level (rat cyclooxygenase 2) [ng/mL] | MDA level (malondialdehyde (MDA); 200 mg/kg) | MDA level (malondialdehyde (MDA); listed as compound 3, 200 mg/kg) [nmol/g tissue] | TNF-α (TNF-α; listed as C3) | IL-1β (IL-1β; listed as C3)
NC1=NC2(CCCCCC2)n2nc(C(=O)Nc3ccc(S(N)(=O)=O)cc3)nc2N1 [Compound 1, 5′-Amino-N-(4-sulfamoylphenyl). -1′H-spiro[cycloheptane-1,7′-[1,2,4]triazolo[1,5-a][1,3,5] -triazine] -2′-carboxamide] | notable improvements | notable improvements | 4.19 ± 0.28 ^b ng/mL | 8.27 ± 0.19 ^b pg/mL | 64.98 ± 0.30 ^b pg/mL | normal collagen quantity and distribution; also recorded: normal in both quantity and organization | 4.31 ± 0.90 | 99.9 | 363 (≈ 867 µM) | above 125 µg/mL | 3.44 ± 0.30 |  |  |  | 
CC1(C)CC(=O)CC2(C1)N=C(N)Nc1nc(C(=O)Nc3ccc(S(N)(=O)=O)cc3)nn12 (stereo not drawn) [Compound 2] | notable improvements | notable improvements | 3.02 ± 0.28 ^b ng/mL | 9.38 ± 0.20 ^b pg/mL | 77.98 ± 0.45 ^b pg/mL | normal dermal collagen; also recorded: normal appearance and distribution | 5.24 ± 0.09 | 99.9 | 328 (≈ 734 µM) | above 125 µg/mL | 4.10 ± 0.09 |  |  |  | 
NC1=NC2(c3ccccc3Cc3ccccc32)n2nc(C(=O)Nc3ccc(S(N)(=O)=O)cc3)nc2N1 [Compound 3] |  | near-control values | 2.20 ± 0.36 ^b ng/mL | 7.16 ± 0.13 pg/mL | 60.38 ± 0.73 pg/mL | normal dermal collagenous fibers without any lesion; also recorded: complete restoration of normal dermal collagen | 2.82 ± 0.08 | 99.8 | 148 (≈ 296 µM) | above 62.5 µg/mL | 2.22 ± 0.06 | close to normal | 35.71 ± 0.51 | 7.16 ± 0.13 ^b pg/mL | 60.38 ± 0.73 ^b pg/mL
